In patent publication US20060264418A1, “6-(2,2,2-Trifluoroethylamino-7-chloro-2,3,4,5-tetrahydro-1h-benzo[d] azephine as a 5-ht2c receptor agonist” (priority 2003, published 2006):

Key:
D2 dopaminergic receptor = D2 dopaminergic receptor (Homo sapiens, UniProt P14416); test: Radioligand receptor binding assay, D2 dopaminergic
human 5-HT2B receptor = target: T1, human 5-HT2B receptor (Homo sapiens, UniProt P41595); test: G alpha q-GTPγ[35S] binding agonist activity assay (ISPA), 5-HT2B; type: biochemical
T1 construct: expressed in transfected cells; host or cells: AV12 cells
T1 sequence (P41595 whole entry): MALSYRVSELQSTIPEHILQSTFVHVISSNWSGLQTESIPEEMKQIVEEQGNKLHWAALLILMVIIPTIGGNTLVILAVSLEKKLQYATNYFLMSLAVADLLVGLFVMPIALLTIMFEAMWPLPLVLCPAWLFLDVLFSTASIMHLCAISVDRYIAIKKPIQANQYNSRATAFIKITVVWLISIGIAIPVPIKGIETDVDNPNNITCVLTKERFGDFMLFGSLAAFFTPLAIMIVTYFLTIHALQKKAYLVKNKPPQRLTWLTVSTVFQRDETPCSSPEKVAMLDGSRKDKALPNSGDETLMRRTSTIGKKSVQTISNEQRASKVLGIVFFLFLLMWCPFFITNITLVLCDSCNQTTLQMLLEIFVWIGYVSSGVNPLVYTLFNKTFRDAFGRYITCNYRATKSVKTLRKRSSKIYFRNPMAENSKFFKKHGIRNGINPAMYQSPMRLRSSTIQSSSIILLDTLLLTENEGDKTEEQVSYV
Procedure: Agonist Activity Assays (G Alpha g-GTPγ[^35S] Binding Assays)
The 5-HT2 receptors are functionally coupled to specific G-proteins. Agonist activation of 5-HT2 G-protein-coupled receptors results in the release of GDP from the α-subunit (G alpha q or G alpha i) of the G-protein and the subsequent binding of GTP. The binding of the stable analog GTPγ[^35S] is an indicator of receptor activation (i.e. agonist activity).
The area under the dose response curve (AUC) is also determined for each receptor subtype and used to measure the test compound's selectivity for the 5-HT2C receptor over the 5-HT2A and 5-HT2B receptors, expressed as Selectivity Ratios (AUC 2C/2A and AUC 2C/2B, respectively). The Selectivity Ratios allow the assessment of selectivity based on both potency and efficacy. A selectivity measure that incorporates both potency and efficacy at the 5-HT2C receptor, as compared to the 5-HT2A and 5-HT2B.receptors, is considered important due to the adverse events associated with 5-HT2A and 5-HT2B agonist activity (see introduction). […]
G alpha q-GTPγ[^35S] […] Quantitate the GTPγ[^35] binding by microtiter plate scintillation spectrometry (Wallac Trilux MicroBeta™ scintillation counter). […]

Wistar rats = test: Schedule-induced polydipsia; type: in vivo, rat
Description: Food-deprived rats exposed to intermittent presentations of food will drink amounts of water that are far in excess of their normal daily intake and in excess of their intake when given all of their food at one time (Falk J L. “Production of polydipsia in normal rats by an intermittent food schedule”, Science 133: 195-196, (1961)). This excessive behavior is persistent and has been used to model OCD.
Maintain Wistar rats on a food restricted diet (to maintain 85% free feeding weight), but with free access to water. Train the rats in a behavioral testing chamber to press a lever to receive a food pellet under a fixed interval schedule, such that the rats are rewarded with a 45 mg food pellet the first time they press a lever after a 120 second interval has elapsed. The fixed interval is then reset to 120 seconds and the process repeated. Thus, during a 90 min. test session, the rats can earn a maximum of 45 pellets. The behavioral chamber is also equipped with a water bottle that is weighed before and after the session to determine the amount of water consumed.
Administer test compounds on Tuesdays and Fridays. Determine control day performances on Thursdays. Administer compounds either orally at 60 min. before the beginning of a test session, or subcutaneously at 20 min. before the beginning of a test session. Compare the rates of lever pressing and water consumption for each animal's performance during sessions after test compound treatment with that animal's performance during control sessions, expressed as a percent of the control rate. Average the individual percent of control rates for each dose and calculate the standard error of the mean.
The in vivo efficacy of 5HT2C compounds at the 5HT2C receptor was confirmed by the prevention of effects of the 5HT2C agonists on excessive drinking by co-administration of the 5HT2C receptor antagonist, 6-chloro-5-methyl-N-(2-(2-methylpyridin-3-yl-oxy)pyridin-5-yl)aminocarbonyl)-2,3-dihydroindole.

Chain of D2 dopaminergic receptor (P14416 whole entry): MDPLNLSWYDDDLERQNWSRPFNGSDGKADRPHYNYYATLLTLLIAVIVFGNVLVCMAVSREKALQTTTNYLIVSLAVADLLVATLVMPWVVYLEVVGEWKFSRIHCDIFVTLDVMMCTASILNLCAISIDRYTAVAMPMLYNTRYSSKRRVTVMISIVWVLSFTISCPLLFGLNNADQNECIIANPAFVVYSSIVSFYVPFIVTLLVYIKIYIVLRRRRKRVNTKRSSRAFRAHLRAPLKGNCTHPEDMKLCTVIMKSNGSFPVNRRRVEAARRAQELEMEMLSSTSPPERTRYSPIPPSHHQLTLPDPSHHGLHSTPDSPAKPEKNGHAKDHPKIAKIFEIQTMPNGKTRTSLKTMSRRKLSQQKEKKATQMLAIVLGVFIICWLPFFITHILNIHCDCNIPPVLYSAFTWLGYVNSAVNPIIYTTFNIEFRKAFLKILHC

## FC(F)(F)CNc1c(Cl)ccc2c1CCNCC2.O=C(O)CCC(=O)O [Example 2, 7-Chloro-6-(2,2,2-trifluoroethylamino)-2,3,4,5-tetrahydro-1H-benzo[d]azepine Succinic Acid Salt]
D2 dopaminergic receptor
  IC50: > 3000 nM
Human 5-HT2B receptor
  Emax: 33.9 ± 1%
Human 5-HT2B receptor; AV12 cell membranes with human 5-HT2B, ± standard error of the mean
  EC50: 119 ± 34 nM
Wistar rats; food restricted rats, 90 min. test session
  schedule-induced polydipsia (excessive drinking): suppress schedule-induced polydipsia without producing notable changes in motor patterns, food intake, or behavior the following day
Wistar rats; rats
  suppression of excessive drinking with co-administration of the 5-HT2C receptor antagonist: blocked
